Source: patent US20240277698A1, “METHODS OF USING ALDOSTERONE SYNTHASE INHIBITORS” (CINCOR PHARMA, INC., priority 2021, published 2024)

Target: T1, aldosterone synthase (Homo sapiens, UniProt P19099)
T1 construct: synthesized in the adrenal cortex by aldosterone synthase; endogenous in cells; host or cells: adrenal cortex of healthy human subjects (in vivo, oral dosing)
T1 sequence (P19099 25-503): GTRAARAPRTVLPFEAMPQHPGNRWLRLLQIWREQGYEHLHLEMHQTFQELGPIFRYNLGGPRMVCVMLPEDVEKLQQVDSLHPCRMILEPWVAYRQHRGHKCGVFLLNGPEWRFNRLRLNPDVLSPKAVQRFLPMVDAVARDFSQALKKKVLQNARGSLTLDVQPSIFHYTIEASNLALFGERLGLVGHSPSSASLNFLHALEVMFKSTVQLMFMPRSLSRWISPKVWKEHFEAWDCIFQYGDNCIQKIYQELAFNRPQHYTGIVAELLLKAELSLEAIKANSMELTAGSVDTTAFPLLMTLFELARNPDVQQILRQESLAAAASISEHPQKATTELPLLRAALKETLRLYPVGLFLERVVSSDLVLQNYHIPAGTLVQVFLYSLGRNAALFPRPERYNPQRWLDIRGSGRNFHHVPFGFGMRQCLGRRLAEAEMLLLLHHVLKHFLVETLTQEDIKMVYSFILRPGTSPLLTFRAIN
Experiment: MAD study: plasma aldosterone and precursors (18-hydroxycorticosterone, corticosterone, 11-deoxycorticosterone)
Assay type: in vivo
Conditions: for Plasma 11-deoxycorticosterone, Day −1 predose / Plasma 18-hydroxycorticosterone, Day −1 predose / Plasma aldosterone, Day −1 predose / Plasma corticosterone, Day −1 predose: baseline; for inhibition of aldosterone synthesis: normal salt diet and low salt diet, 10-day dosing
From the text: For each subject, the study consisted of: • A screening period of up to 28 days; • A 5-day inpatient run-in period during which subjects adhered to a controlled, standardized diet and underwent baseline PD assessments; • A 15-day inpatient treatment period, during which subjects received (R)-compound 1 or placebo once daily for 10 days while adhering to a controlled, standardized diet, followed by PK and PD sampling over an additional 5 days; and • A follow-up visit 3 days (1 day) after discharge from the clinical unit. • A cortisol stimulation test (Cohorts 1 and 2 only) and standing aldosterone assessment (all cohorts) were performed on Days 1 and 10. Serial blood samples for PK and PD were obtained prior to and at specified time points over 24 hours after dosing on Day 1 as well as prior to and at specified time points over 120 hours after dosing on Day 10. In addition, blood samples for PK were collected prior to dosing on Days 8 and 9. Urine for PK and PD measurements was collected over 24 hours starting just prior to dosing on Day 1 as well as over 120 hours starting just prior to dosing on Day 10. […]

[1] = 2.5 mg QD, normal salt diet, mean

Compound: CCC(=O)N[C@@H]1CCCc2c(-c3ccc4c(c3)CCC(=O)N4C)cncc21 [(R)-Compound 1, (R)—N-(4-(1-methyl-2-oxo-1,2,3,4-tetrahydroquinolin-6-yl)-5,6,7,8-tetrahydroisoquinolin-8-yl)propionamide]
- Plasma 18-hydroxycorticosterone, Day 10, 24 hours postdose (2.5 mg QD, low salt diet, mean): 961.8 pg/mL
- Plasma 18-hydroxycorticosterone, Day 10, predose (2.5 mg QD, low salt diet, mean): 895.4 pg/mL
- Plasma 18-hydroxycorticosterone, Percent change from Day −1 to Day 10 (2.5 mg QD, low salt diet, mean): −22.0%
- Plasma aldosterone, Day 1, 12 hours postdose (2.5 mg QD, low salt diet, mean): 48.013 pg/mL
- Plasma aldosterone, Day 1, predose (2.5 mg QD, low salt diet, mean): 151.988 pg/mL
- Plasma aldosterone, Day 10, 12 hours postdose (2.5 mg QD, low salt diet, mean): 69.100 pg/mL
- Plasma aldosterone, Day 10, 24 hours postdose (2.5 mg QD, low salt diet, mean): 112.213 pg/mL
- Plasma aldosterone, Day 10, predose (2.5 mg QD, low salt diet, mean): 97.538 pg/mL
- Plasma aldosterone, Percent change from Day −1 to Day 10, predose (2.5 mg QD, low salt diet, mean): −56.540%
- Plasma corticosterone, Day 1, 12 hours postdose (2.5 mg QD, low salt diet, mean): 1653.4 pg/mL
- Plasma corticosterone, Day 1, predose (2.5 mg QD, low salt diet, mean): 3711.5 pg/mL
- Plasma corticosterone, Day 10, 12 hours postdose (2.5 mg QD, low salt diet, mean): 3412.5 pg/mL
- Plasma corticosterone, Day 10, 24 hours postdose (2.5 mg QD, low salt diet, mean): 10012.5 pg/mL
- Plasma corticosterone, Day 10, predose (2.5 mg QD, low salt diet, mean): 7190.0 pg/mL
- Plasma corticosterone, Percent change from Day −1 to Day 10, predose (2.5 mg QD, low salt diet, mean): 132.0%
- Plasma 11-deoxycorticosterone, Day −1 predose [1]: 50.017 pg/mL
- Plasma 18-hydroxycorticosterone, Day −1 predose [1]: 1185.8 pg/mL
- Plasma aldosterone, Day −1 predose [1]: 153.667 pg/mL
- Plasma corticosterone, Day −1 predose [1]: 6395.0 pg/mL
- Plasma 11-deoxycorticosterone, Day 1, 12 hours postdose [1]: 23.667 pg/mL
- Plasma 11-deoxycorticosterone, Day 1, predose [1]: 53.200 pg/mL
- Plasma 11-deoxycorticosterone, Day 2, predose [1]: 69.617 pg/mL
- Plasma 11-deoxycorticosterone, Day 10, 12 hours postdose [1]: 93.780 pg/mL
- Plasma 11-deoxycorticosterone, Day 10, 24 hours postdose [1]: 177.400 pg/mL
- Plasma 11-deoxycorticosterone, Day 10, predose [1]: 130.680 pg/mL
- Plasma 11-deoxycorticosterone, Percent change from Day −1 to Day 10, predose [1]: 171.567%
- Plasma 18-hydroxycorticosterone, Day 1, 12 hours postdose [1]: 267.3 pg/mL
- Plasma 18-hydroxycorticosterone, Day 1, predose [1]: 1087.0 pg/mL
- Plasma 18-hydroxycorticosterone, Day 2, predose [1]: 901.2 pg/mL
- Plasma 18-hydroxycorticosterone, Day 10, 12 hours postdose [1]: 345.6 pg/mL
- Plasma 18-hydroxycorticosterone, Day 10, 24 hours postdose [1]: 1238.0 pg/mL
- Plasma 18-hydroxycorticosterone, Day 10, predose [1]: 1073.4 pg/mL
- Plasma 18-hydroxycorticosterone, Percent change from Day −1 to Day 10 [1]: −10.4%
- Plasma aldosterone, Day 1, 12 hours postdose [1]: 16.535 pg/mL
- Plasma aldosterone, Day 1, predose [1]: 131.250 pg/mL
- Plasma aldosterone, Day 2, predose [1]: 37.700 pg/mL
- Plasma aldosterone, Day 10, 12 hours postdose [1]: 46.360 pg/mL
- Plasma aldosterone, Day 10, 24 hours postdose [1]: 120.740 pg/mL
- Plasma aldosterone, Day 10, predose [1]: 101.880 pg/mL
- Plasma aldosterone, Percent change from Day −1 to Day 10, predose [1]: −34.296%
- Plasma corticosterone, Day 1, 12 hours postdose [1]: 889.0 pg/mL
- Plasma corticosterone, Day 1, predose [1]: 5828.3 pg/mL
- Plasma corticosterone, Day 2, predose [1]: 6328.3 pg/mL
- Plasma corticosterone, Day 10, 12 hours postdose [1]: 2704.0 pg/mL
- Plasma corticosterone, Day 10, 24 hours postdose [1]: 11182.0 pg/mL
- Plasma corticosterone, Day 10, predose [1]: 8102.0 pg/mL
- Plasma corticosterone, Percent change from Day −1 to Day 10, predose [1]: 60.6%
- Plasma 11-deoxycorticosterone, Day −1 predose (5.0 mg QD, low salt diet, mean): 49.111 pg/mL
- Plasma 18-hydroxycorticosterone, Day −1 predose (5.0 mg QD, low salt diet, mean): 966.3 pg/mL
- Plasma aldosterone, Day −1 predose (5.0 mg QD, low salt diet, mean): 189.633 pg/mL
- Plasma corticosterone, Day −1 predose (5.0 mg QD, low salt diet, mean): 3700.7 pg/mL
- Plasma 11-deoxycorticosterone, Day 1, 12 hours postdose (5.0 mg QD, low salt diet, mean): 94.622 pg/mL
- Plasma 11-deoxycorticosterone, Day 1, predose (5.0 mg QD, low salt diet, mean): 55.789 pg/mL
- Plasma 11-deoxycorticosterone, Day 10, 12 hours postdose (5.0 mg QD, low salt diet, mean): 219.700 pg/mL
- Plasma 11-deoxycorticosterone, Day 10, 24 hours postdose (5.0 mg QD, low salt diet, mean): 308.444 pg/mL
- Plasma 11-deoxycorticosterone, Day 10, predose (5.0 mg QD, low salt diet, mean): 218.611 pg/mL
- Plasma 11-deoxycorticosterone, Percent change from Day −1 to Day 10, predose (5.0 mg QD, low salt diet, mean): 573.144%
- Plasma 18-hydroxycorticosterone, Day 1, 12 hours postdose (5.0 mg QD, low salt diet, mean): 162.3 pg/mL
- Plasma 18-hydroxycorticosterone, Day 1, predose (5.0 mg QD, low salt diet, mean): 825.8 pg/mL
- Plasma 18-hydroxycorticosterone, Day 10, 12 hours postdose (5.0 mg QD, low salt diet, mean): 405.2 pg/mL
- Plasma 18-hydroxycorticosterone, Day 10, 24 hours postdose (5.0 mg QD, low salt diet, mean): 1298.0 pg/mL
- Plasma 18-hydroxycorticosterone, Day 10, predose (5.0 mg QD, low salt diet, mean): 1159.6 pg/mL
- Plasma 18-hydroxycorticosterone, Percent change from Day −1 to Day 10 (5.0 mg QD, low salt diet, mean): 38.2%
- Plasma aldosterone, Day 1, 12 hours postdose (5.0 mg QD, low salt diet, mean): 17.511 pg/mL
- Plasma aldosterone, Day 1, predose (5.0 mg QD, low salt diet, mean): 182.800 pg/mL
- Plasma aldosterone, Day 10, 12 hours postdose (5.0 mg QD, low salt diet, mean): 49.467 pg/mL
- Plasma aldosterone, Day 10, 24 hours postdose (5.0 mg QD, low salt diet, mean): 125.811 pg/mL
- Plasma aldosterone, Day 10, predose (5.0 mg QD, low salt diet, mean): 98.367 pg/mL
- Plasma aldosterone, Percent change from Day −1 to Day 10, predose (5.0 mg QD, low salt diet, mean): −36.400%
- Plasma corticosterone, Day 1, 12 hours postdose (5.0 mg QD, low salt diet, mean): 890.3 pg/mL
- Plasma corticosterone, Day 1, predose (5.0 mg QD, low salt diet, mean): 2726.3 pg/mL
- Plasma corticosterone, Day 10, 12 hours postdose (5.0 mg QD, low salt diet, mean): 4738.9 pg/mL
- Plasma corticosterone, Day 10, 24 hours postdose (5.0 mg QD, low salt diet, mean): 13976.7 pg/mL
- Plasma corticosterone, Day 10, predose (5.0 mg QD, low salt diet, mean): 11962.2 pg/mL
- Plasma corticosterone, Percent change from Day −1 to Day 10, predose (5.0 mg QD, low salt diet, mean): 460.2%
- doses that markedly decrease aldosterone levels (low salt diet and normal salt diet): > 0.5 mg
- inhibition of aldosterone synthesis: marked, sustained, selective, and generally dose dependent inhibition
- inhibition of aldosterone synthesis (listed as (R)-compound 1): marked, sustained, selective, and generally dose dependent inhibition
